Laboratory results taken from patent US20220185744A1, “FERTILISING COMPOSITION WHICH INCLUDES A PLANT-ASSIMILABLE PHOSPHORUS AND CALCIUM POTENTIATOR AND USE THEREOF” (priority 2019, published 2022).

Each molecule was assayed on maize plants (assay: Pot trial: single root-exudate metabolites applied to soil, dry biomass of maize plants at 6 weeks). Details: 1 kg/ha, pot trial.
Type: in vivo
Source text: These metabolites were: gluconic acid, glyceric acid, lactic acid, glucose, threonic acid, fructose, aspartic acid, serine, glycerol, arabinose and glutamine. […] The effect of the metabolites was compared with a negative control (no treatment) and a positive control with a conventional phosphate fertiliser (triple superphosphate at a dose of 100 phosphorus fertiliser units —P2O5— per hectare). […] This level of assimilable phosphorus corresponds to 4.5 kg of P2O5 per hectare (considering 30 centimetres of arable soil and an average density of 1,300 kg/m^3, the mass per hectare would be approximately 3,900 tonnes).

Compound	Growth enhancement in maize (in words)
O=C(O)C(O)CO (centres unmarked) [Glyceric acid, 2,3-dihydroxypropanoic acid]	the most growth-enhancing metabolite in maize

Same assay, conditions: metabolite 1 kg/ha in pot with 3 kg soil (assimilable P 0.5 ppm), triple superphosphate 100 P2O5 units/ha

Compound	Dry biomass of maize plants at 6 weeks of growth, dry weight
CC(O)C(=O)O (centres unmarked) [Lactic acid]	1.73 g
O=C(O)C(O)CO (centres unmarked) [Glyceric acid, 2,3-dihydroxypropanoic acid]	1.93 g
NC(=O)CC[C@H](N)C(=O)O [Glutamine]	1.55 g
O=C(O)[C@H](O)[C@@H](O)[C@H](O)[C@H](O)CO [Gluconic acid]	1.77 g
O=C(O)[C@@H](O)[C@H](O)CO [Threonic acid]	1.14 g
OCC(O)CO [Glycerol]	1.30 g
O=C(CO)[C@@H](O)[C@H](O)[C@H](O)CO [Fructose]	1.38 g
O=C[C@@H](O)[C@H](O)[C@H](O)CO [Arabinose]	1.26 g
N[C@@H](CO)C(=O)O [Serine]	1.31 g
N[C@@H](CC(=O)O)C(=O)O [Aspartic acid]	1.16 g
